Data: patent US20250313604A1, “PEPTIDE PHARMACEUTICALS FOR INSULIN RESISTANCE” (Mederis Diabetes LLC, priority 2014, published 2025)

What was measured:
[1] = target: T1, GLP-1 R (Homo sapiens, UniProt P43220); test: DiscoveRx LeadHunter cellular assay, cAMP stimulation, GLP-1 receptor; format: cell-based; details: human receptor cloned into CHO cells
T1 construct: host or cells: CHO cells
Description: (§1) A further series of cellular assays were carried out using standard cellular assays (DiscoveRx, LeadHunter assays) using readout of cAMP stimulation or arrestin activation. Compounds were weighed precisely in an amount of approximately 1 mg and shipped to DiscoveRx for dilution and assay.

[2] = target: T2, glucagon R (Homo sapiens, UniProt P47871); test: DiscoveRx LeadHunter cellular assay, cAMP stimulation, glucagon receptor; format: cell-based; details: read-out: EC50 cAMP glucagon R; human receptor cloned into CHO cells
T2 construct: host or cells: CHO cells
T2 sequence (P47871 26-477): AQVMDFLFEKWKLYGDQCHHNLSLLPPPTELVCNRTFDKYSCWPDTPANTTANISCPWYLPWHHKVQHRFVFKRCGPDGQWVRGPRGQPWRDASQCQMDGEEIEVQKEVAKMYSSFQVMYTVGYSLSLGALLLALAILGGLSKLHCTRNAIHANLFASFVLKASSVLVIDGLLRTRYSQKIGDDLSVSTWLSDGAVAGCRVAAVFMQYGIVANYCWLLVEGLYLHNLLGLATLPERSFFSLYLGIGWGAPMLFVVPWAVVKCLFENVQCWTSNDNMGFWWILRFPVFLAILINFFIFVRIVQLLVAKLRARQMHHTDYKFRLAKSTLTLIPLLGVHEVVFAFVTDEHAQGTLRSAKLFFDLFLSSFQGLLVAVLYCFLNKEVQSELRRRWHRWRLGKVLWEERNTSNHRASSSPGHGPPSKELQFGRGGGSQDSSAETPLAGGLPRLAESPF
Description: as §1

[3] = system: DIO mice; test: In vivo assay in DIO mice (OGTT, insulin, body weight, NMR body composition)
Description: Fifty (50) diet induced obese (DIO) C57BL/6J male mice were received from JAX labs at 6 wks of age. The mice were ear notched for identification and housed […] in positively ventilated polycarbonate cages with HEPA filtered air at a density of 5 mice per cage. The animal room was lit entirely with artificial fluorescent lighting, with a controlled 12 h light/dark cycle. The normal temperature and relative humidity ranges in the animal rooms were 22±4° C. and 50±15%, respectively. Filtered tap water, acidified to a pH of 2.8 to 3.1, and high fat diet (Research Diets D12492; 60 kcal %) was provided ad libitum.
Following a 2 week acclimation, 50 mice were randomized into groups (n=10) as below. Group 1. Vehicle treated; Group 2. Low dose EU-A994; Group 3. high dose EU-A594; Group 4. low dose EU-A1024; Group 5. high dose EU-A1024. Mice were dosed via SC on days 1 (0, 7 hrs.), 3, 6, 9, 12, 15, 18, 21, 24. Body weights and cage side observations were recorded daily. Food and water intake was recorded weekly. Mice underwent NMR measurements for determining whole body fat and lean composition on days 1 (pre-dose) and 26. On day 26, mice were fasted overnight for an oral glucose tolerance test. Next day, the first blood sample was collected via tail nick (t=0). Mice were then administered a bolus of 1.0 g/kg glucose. Blood samples were obtained via tail nick at 0, 15, 30, 60, 90 and 120 min after glucose and plasma glucose was immediately determined using a glucometer.
Sacrifice and tissue collection: Mice were sacrificed on day 28. Terminal blood was processed to serum/plasma and aliquots were sent for analysis of glucose, insulin and lipid profile. Body composition was determined by NMR.

T1 sequence (P43220 24-463): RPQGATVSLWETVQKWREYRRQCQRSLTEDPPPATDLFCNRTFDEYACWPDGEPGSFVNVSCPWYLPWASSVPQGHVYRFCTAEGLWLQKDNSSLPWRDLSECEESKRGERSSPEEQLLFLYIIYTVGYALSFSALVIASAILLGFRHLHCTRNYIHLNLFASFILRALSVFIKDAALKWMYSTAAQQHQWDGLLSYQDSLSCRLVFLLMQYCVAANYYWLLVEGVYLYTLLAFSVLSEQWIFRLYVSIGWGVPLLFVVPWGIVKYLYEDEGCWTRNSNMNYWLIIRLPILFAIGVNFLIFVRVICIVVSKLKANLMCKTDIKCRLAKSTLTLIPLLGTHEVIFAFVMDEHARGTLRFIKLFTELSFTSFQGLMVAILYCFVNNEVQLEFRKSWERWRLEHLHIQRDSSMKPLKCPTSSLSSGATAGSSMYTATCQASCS

| SMILES | EC50 [1] [pM] | EC50 [2] [pM] | fat mass ([3]; NMR (FIG. 11)) | lean mass ([3]; NMR (FIG. 11)) | basal insulin secretion ([3]; SC dosing days 1-24) | glucose-dependent insulin secretion ([3]; SC dosing days 1-24) | weight gain ([3]; SC dosing days 1-24 (FIG. 10)) | glucose excursion in the OGTT ([3]; SC dosing days 1-24, OGTT 1.0 g/kg glucose) |
| --- | --- | --- | --- | --- | --- | --- | --- | --- |
| CCCCCCCCCCCCO[C@@H]1O[C@H](CO[C@H]2O[C@H](C(=O)NCCCC[C@H](NC(=O)[C@@H](NC(=O)[C@H](Cc3ccccc3)NC(=O)[C@H](CCC(=O)O)NC(=O)[C@@H]3CCCCNC(=O)CC[C@H](NC(=O)[C@H](CC(=O)O)NC(=O)[C@H](CC(C)C)NC(=O)[C@H](Cc4ccc(O)cc4)NC(=O)[C@H](CCCCN)NC(=O)[C@H](CO)NC(=O)[C@H](Cc4ccc(O)cc4)NC(=O)[C@H](CC(=O)O)NC(=O)[C@H](CO)NC(=O)[C@@H](NC(=O)[C@H](Cc4ccccc4)NC(=O)[C@@H](NC(=O)CNC(=O)[C@H](CCC(N)=O)NC(=O)C(C)(C)NC(=O)[C@@H](N)Cc4c[nH]cn4)[C@@H](C)O)[C@@H](C)O)C(=O)N[C@@H](CCC(N)=O)C(=O)N[C@@H](C)C(=O)N[C@@H](C)C(=O)N3)[C@@H](C)CC)C(=O)N[C@@H](Cc3c[nH]c4ccccc34)C(=O)N[C@@H](CC(C)C)C(=O)N[C@@H](CC(C)C)C(=O)N[C@@H](CCC(N)=O)C(=O)N[C@H](C(=O)NCCOCCOCCOCCOCCOCCOCCOCCOCCC(=O)O)[C@@H](C)O)[C@H](O)[C@H](O)[C@H]2O)[C@@H](O)[C@H](O)[C@H]1O [EU-A1651] | 33 | 149 |  |  |  |  |  |  |
| CCCCCCCCCCCCCCO[C@@H]1O[C@H](CO[C@H]2O[C@H](C(=O)NCCCC[C@H](NC(=O)[C@@H](NC(=O)[C@H](Cc3ccccc3)NC(=O)[C@H](CCC(=O)O)NC(=O)[C@@H]3CCCCNC(=O)CC[C@H](NC(=O)[C@H](CC(=O)O)NC(=O)[C@H](CC(C)C)NC(=O)[C@H](Cc4ccc(O)cc4)NC(=O)[C@H](CCCCN)NC(=O)[C@H](CO)NC(=O)[C@H](Cc4ccc(O)cc4)NC(=O)[C@H](CC(=O)O)NC(=O)[C@H](CO)NC(=O)[C@@H](NC(=O)[C@H](Cc4ccccc4)NC(=O)[C@@H](NC(=O)CNC(=O)[C@H](CCC(N)=O)NC(=O)C(C)(C)NC(=O)[C@@H](N)Cc4c[nH]cn4)[C@@H](C)O)[C@@H](C)O)C(=O)N[C@@H](CCC(N)=O)C(=O)N[C@@H](C)C(=O)N[C@@H](C)C(=O)N3)[C@@H](C)CC)C(=O)N[C@@H](Cc3c[nH]c4ccccc34)C(=O)N[C@@H](CC(C)C)C(=O)N[C@@H](CC(C)C)C(=O)N[C@@H](CCC(N)=O)C(=O)N[C@H](C(N)=O)[C@@H](C)O)[C@H](O)[C@H](O)[C@H]2O)[C@@H](O)[C@H](O)[C@H]1O [EU-A1024, His1-Aib2-Gln3-Gly4-Thr5-Phe6-Thr7-Ser8-Asp9-Tyr10-Ser11-Lys12-Tyr13-Leu14-Asp15-Glu*16-Gln17 Ala18-Ala19-Lys*20-Glu21-Phe22-Ile23-Lys (N-omega (1-tetradecyl beta-D-melibiouronyl)) 24-Trp25-Leu26-Leu27-Gln28-Thr29-NH2] |  |  | decreased fat mass | minimal effects on lean mass | decreased basal insulin secretion | potentiated glucose-dependent insulin secretion | decreased weight gain | decreased glucose excursion |
